Melting point data for 30 molecules are collected here from patent publication US20020132809A1, “Heterocyclic carboxamide derivatives as inhibitors of nitric oxide production” (Fujisawa Pharmaceutical Co. Ltd., priority 1998, published 2002).

One may read the melting point as the temperature, or range, at which the solid turns liquid.

`COc1ccc2oc(N(C=O)[C@@H](Cc3ccccn3)c3ncc(-c4ccc(N5CCOCC5)cc4)n3C)cc2c1` [Example 3, (1S)-(5-Methoxybenzo[b]furan-2-yl)-N-[1-[1-methyl-5-(4-morpholinophenyl)imidazol-2-yl]-2-(2-pyridyl)ethyl]formamide] returned a melting point of 122 to 124 °C.
For `Cn1c(-c2ccc(-n3ccnc3)cc2)cnc1[C@H](Cc1ccccn1)N(C=O)c1cc2cc(Br)ccc2o1` [Example 46, (1S)-(5-Bromobenzo[b]furan-2-yl)-N-[1-[5-[4-(1-imidazolyl)-phenyl]-1-methylimidazol-2-yl]-2-(2-pyridyl)ethyl]formamide] the value was 197 to 199 °C; for `Cn1c(-c2ccc(-c3cncs3)cc2)cnc1[C@H](Cc1ccccn1)N(C=O)c1cc2cc(Cl)ccc2o1` [Example 38, (1S)-(5-Chlorobenzo[b]furan-2-yl)-N-[1-[1-methyl-5-[4-(5-thiazolyl)phenyl]imidazol-2-yl]-2-(2-pyridyl)ethyl]formamide], 165 to 167 °C; for `Cn1c(-c2ccc([N+](=O)[O-])cc2)cnc1[C@H](Cc1ccccn1)N(C=O)c1cc2cc(C(F)(F)F)ccc2o1` [Example 39, (1S)-N-[1-[1-Methyl-5-(4-nitrophenyl)imidazol-2-yl]-2-(2-pyridyl)-ethyl][5-(trifluoromethyl)benzo[b]furan-2-yl]formamide], 192 to 194 °C.
For `CCn1c(-c2ccc(-n3ccnc3)cc2)cnc1[C@H](Cc1ccccn1)N(C=O)c1cc2cc(C(F)(F)F)ccc2o1` [Example 29, (1S)-N-[1-[1-Ethyl-5-[4-(1-imidazolyl)phenyl]imidazol-2-yl]-2-(2-pyridyl)ethyl][5-(trifluoromethyl)benzo[b]furan-2-yl]formamide] the value was 85 to 89 °C; for `Cn1c(-c2ccc(-n3ccnc3)cc2)cnc1[C@H](Cc1ccccn1)N(C=O)c1cc2cc(F)ccc2o1` [Example 54, (1S)-(5-Fluorobenzo[b]furan-2-yl)-N-[1-[5-[4-(1-imidazolyl)-phenyl]-1-methylimidazol-2-yl]-2-(2-pyridyl)ethyl]formamide], 180 to 182 °C.
In turn, `Cn1c(-c2ccc(-n3ccnc3)cc2)cnc1[C@H](Cc1ccccn1)N(C=O)c1cc2cccc(Cl)c2o1` [Example 68, (1S)-(7-Chlorobenzo[b]furan-2-yl)-N-[1-[5-[4-(1-imidazolyl)phenyl]-1-methylimidazol-2-yl]-2-(2-pyridyl)ethyl]formamide] showed a melting point of 182 to 184 °C.
For `CCCn1c(-c2ccc(-n3ccnc3)cc2)cnc1[C@H](Cc1ccccn1)N(C=O)c1cc2cc(C(F)(F)F)ccc2o1` [Example 30, (1S)-N-[1-[5-[4-(1-Imidazolyl)phenyl]-1-propylimidazol-2-yl]-2-(2-pyridyl)ethyl][5-(trifluoromethyl)benzo[b]furan-2-yl]formamide], the melting point is 92 to 98 °C.
`Cc1nc([C@H](Cc2ccccn2)N(C=O)c2cc3ccccc3[nH]2)n(C)c1-c1ccc(-n2ccnc2)cc1` [Example 23, (1S)-N-[1-[5-[4-(1-Imidazolyl)phenyl]-1,4-dimethylimidazol-2-yl]-2-(2-pyridyl)ethyl](indol-2-yl)formamide] showed a melting point of 156 to 157 °C.
For `Cn1c(-c2ccc([N+](=O)[O-])cc2)cnc1[C@H](Cc1ccccn1)N(C=O)c1cc2ccccc2o1` [Example 64, (1S)-(Benzo[b]furan-2-yl)-N-[1-[1-methyl-5-(4-nitrophenyl)imidazol-2-yl]-2-(2-pyridyl)ethyl]formamide], the melting point is 103 to 104 °C.
For `Cn1c(-c2ccc(-c3ccccc3)cc2)cnc1[C@H](Cc1ccccn1)N(C=O)c1cc2cc(Cl)ccc2o1` [Example 10, (1S)-N-[1-[5-(4-Biphenylyl)-1-methylimidazol-2-yl]-2-(2-pyridyl)-ethyl](5-chlorobenzo[b]furan-2-yl)formamide] the value was 171 to 174 °C; for `Cn1c(-c2ccc(-c3ccncc3)cc2)cnc1[C@H](Cc1ccccn1)N(C=O)c1cc2cc(Cl)ccc2o1` [Example 37, (1S)-(5-Chlorobenzo[b]furan-2-yl)-N-[1-[1-methyl-5-[4-(4-pyridyl)-phenyl]imidazol-2-yl]-2-(2-pyridyl)ethyl]formamide], 135 to 140 °C.
For `Cn1c(-c2ccc(-n3cnc4ccccc43)cc2)cnc1[C@H](Cc1ccccn1)N(C=O)c1cc2ccccc2o1` [Example 32, (1S)-N-[1-[5-[4-(1-Benzimidazolyl)phenyl]-1-methylimidazol-2-yl]-2-(2-pyridyl)ethyl](benzo[b]furan-2-yl)formamide] the value was 152 to 155 °C; for `Cn1c(-c2ccc(-n3ccnc3)cc2)cnc1[C@H](Cc1ccccn1)N(C=O)c1cc2ccccc2s1` [Compound (c), (1S)-(benzo[b]thiophen-2-yl)-N-[1-[5-[4-(1-imidazolyl) -phenyl]-1-methylimidazol-2-yl]-2-(2-pyridyl)ethyl]formamide], 190 to 193 °C.
For `Cn1c(-c2ccc(-n3ccnc3)cc2)cnc1[C@H](Cc1ccccn1)N(C=O)c1cc2cccnc2o1` [Example 27, (1S)-(Furo[2,3-b]pyridin-2-yl)-N-[1-[5-[4-(1-imidazolyl)phenyl]-1-methylimidazol-2-yl]-2-(2-pyridyl)ethyl]formamide] the value was 108 to 110 °C; for `Cn1c(-c2ccc(-c3cccnc3)cc2)cnc1[C@H](Cc1ccccn1)N(C=O)c1cc2cc(Br)ccc2o1` [Example 35, (1S)-(5-Bromobenzo[b]furan-2-yl)-N-[1-[1-methyl-5-[4-(3-pyridyl)-phenyl]imidazol-2-yl]-2-(2-pyridyl)ethyl]formamide], 168 to 171 °C; for `Cn1c(-c2ccc(N3CCOCC3)cc2)cnc1[C@H](Cc1ccccn1)N(C=O)c1nc2cc(Cl)ccc2s1` [Example 6, (1S)-(5-Chlorobenzothiazol-2-yl)-N-[1-[1-methyl-5-(4-morpholinophenyl)imidazol-2-yl]-2-(2-pyridyl)ethyl]formamide], 96 to 99 °C.
As to `Cn1c(-c2ccc(-n3cnc4ccccc43)cc2)cnc1[C@H](Cc1ccccn1)N(C=O)c1cc2ccccc2[nH]1` [Example 31, (1S)-N-[1-[5-[4-(1-Benzimidazolyl)phenyl]-1-methylimidazol-2-yl]-2-(2-pyridyl)ethyl](indol-2-yl)formamide], the melting point lay within 233 to 237 °C.
For `Cc1nccn1-c1ccc(-c2cnc([C@H](Cc3ccccn3)N(C=O)c3cc4cc(Cl)ccc4o3)n2C)cc1` [Example 70, (1S)-(5-Chlorobenzo[b]furan-2-yl)-N-[1[-1-methyl-5-[4-(2-methylimidazol-1-yl)phenyl]imidazol-2-yl]-2-(2-pyridyl)ethyl]formamide] the value was 159 to 161 °C.
For `Cn1c(-c2ccc(N3CCOCC3)cc2)cnc1[C@H](Cc1ccccn1)N(C=O)c1cc2cc(Br)ccc2o1` [Example 2, (1S)-(5-Bromobenzo[b]furan-2-yl)-N-[1-[1-methyl-5-(4-morpholinophenyl)imidazol-2-yl]-2-(2-pyridyl)ethyl]formamide], the melting point fell in the range of 173 to 174 °C.
For `COc1ccc2oc(N(C=O)[C@@H](Cc3ccccn3)c3ncc(-c4ccc([N+](=O)[O-])cc4)n3C)cc2c1` [Compound (f), (1S)-(5-methoxybenzo[b]furan-2-yl)-N-[1-[1-methyl-5-(4-nitrophenyl)imidazol-2-yl]-2-(2-pyridyl)ethyl]formamide] the value was 210 to 211 °C; for `CCn1c(-c2ccc(-n3ccnc3)cc2)cnc1[C@H](Cc1ccccn1)N(C=O)c1cc2cc([N+](=O)[O-])ccc2o1.Cl.Cl.Cl`, 190 to 200 °C.
For `Cn1c(-c2ccc(N3CCOCC3)cc2)cnc1[C@H](Cc1ccccn1)N(C=O)c1cc2cc(F)ccc2o1` [Example 4, (1S)-(5-Fluorobenzo[b]furan-2-yl)-N-[1-[1-methyl-5-(4-morpholinophenyl)imidazol-2-yl]-2-(2-pyridyl)ethyl]formamide] the value was 130 to 132 °C; for `CCn1c(-c2ccc(-n3ccnc3)cc2)cnc1[C@H](Cc1ccccn1)N(C=O)c1cc2cc(Cl)ccc2o1.Cl.Cl.Cl`, 198 to 203 °C.
For `CCn1c(-c2ccc(-n3ccnc3)cc2)cnc1[C@H](Cc1ccccn1)N(C=O)c1cc2cc(F)ccc2o1` [Example 55, (1S)-N-[1-[1-Ethyl-5-[4-(1-imidazolyl)phenyl]imidazol-2-yl]-2-(2-pyridyl)ethyl](5-fluorobenzo[b]furan-2-yl)formamide] the value was 80 to 84 °C.
For `Cn1c(-c2ccc(-c3nccs3)cc2)cnc1[C@H](Cc1ccccn1)N(C=O)c1cc2cc(Cl)ccc2o1` [Example 18, (1S)-(5-Chlorobenzo[b]furan-2-yl)-N-[1-[1-methyl-5-[4-(2-thiazolyl)phenyl]imidazol-2-yl]-2-(2-pyridyl)ethyl]formamide], the melting point was in the range of 144 to 146 °C.
For `CCCn1c(-c2ccc(-n3ccnc3)cc2)cnc1[C@H](Cc1ccccn1)N(C=O)c1cc2cc(Cl)ccc2o1` [Example 48, (1S)-(5-Chlorobenzo[b]furan-2-yl)-N-[1-[5-[4-(1-imidazolyl)-phenyl]-1-propylimidazol-2-yl]-2-(2-pyridyl)ethyl]formamide] the value was 173 to 175 °C; for `Cn1c(-c2ccc([N+](=O)[O-])cc2)cnc1[C@H](Cc1ccccn1)N(C=O)c1cc2cc(F)ccc2o1` [Example 63, (1S)-(5-Fluorobenzo[b]furan-2-yl)-N-[1-[1-methyl-5-(4-nitrophenyl)imidazol-2-yl]-2-(2-pyridyl)ethyl]formamide], 207 to 208 °C; for `Cn1c(-c2ccc(-c3ccccc3)cc2)cnc1[C@H](Cc1ccccn1)N(C=O)c1cc2cc(Br)ccc2o1` [Compound (b), (1S)-N-[1-[5-(4-biphenylyl)-1-methylimidazol-2-yl]-2-(2-pyridyl)ethyl](5-bromobenzo[b]furan-2-yl)formamide], 180.5 to 181.5 °C.
For `Cn1c(-c2ccc(-c3ccco3)cc2)cnc1[C@H](Cc1ccccn1)N(C=O)c1cc2cc(Cl)ccc2o1` [Example 16, (1S)-(5-Chlorobenzo[b]furan-2-yl)-N-[1-[5-[4-(2-furyl)phenyl]-1-methylimidazol-2-yl]-2-(2-pyridyl)ethyl]formamide] the value was 144 to 146 °C.
